Experimental data as given in patent publication US8987195B2 (priority 2012, dated 2015).
Like-named read-outs stand apart in the source and are kept apart here.

Key:
[1] = target: HCV NS3/4A protease genotype 1b (Hepatitis C virus genotype 1b, UniProt P26663); assay: HCV NS3/4A protease time-resolved fluorescence (TRF) assay, Ki against genotype 1b; type: biochemical; details: IC50 [gt-1b] (nM), NS3/4A genotype 1b, enzyme 0.2 nM
Outline: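 First, protease (genotype 1b 0.2 nM, A156T 0.4 nM, genotype 3a 0.025 nM) is preincubated 30 min with inhibitor. Next, 25 nM TRF substrate starts the reaction, run 2.5 h at room temperature. Finally, europium fluorescence is read and Ki calculated from IC50.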

HCV genotype 1b replicon = assay: HCV replicon assay, genotype 1b replicon EC50; type: cell-based, Hepatitis C virus; details: genotype 1b replicon, read-out: EC50 [gt-1b]
Outline: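 Assay format: compound titration on stable replicon cells, no G418 during treatment, 24 to 48 hours. Lysates were assayed for replicon RNA (hybridization/protection or TaqMan) or luciferase; EC50 fitted to four parameters against DMSO.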

SMILES: Cc1nc2ccccc2c2c1O[C@]1(CC2)C[C@H]2C(=O)N[C@]3(C(=O)NS(=O)(=O)C4(C)CC4)C[C@H]3/C=C\CCCCC[C@H](NC(=O)OC3CCC(F)(F)CC3)C(=O)N2C1 [Example 196, 4,4-difluorocyclohexyl [(2R,6S,12Z,13aS,14aR,16aS)-5′-methyl-14a-{[(1-methylcyclopropyl)sulfonyl]carbamoyl}-5,16-dioxo-1,1′,2′,5,6,7,8,9,10,11,13a,14,14a,15,16,16a-hexadecahydrospiro[cyclopropa[e]pyrrolo[1,2-a][1,4]diazacyclopentadecine-2,3′-pyrano[2,3-c]quinolin]-6-yl]carbamate]
- IC50 [1]: 0.003 nM
- EC50 (HCV genotype 1b replicon; Hepatitis C virus): 5520 pM

SMILES: Cc1nc2ccccc2c2c1O[C@]1(CC2)C[C@H]2C(=O)N[C@]3(C(=O)NS(=O)(=O)C4(C)CC4)C[C@H]3/C=C\CCCCC[C@H](NC(=O)OC(C)C(F)(F)F)C(=O)N2C1 (stereo partly drawn) [Example 197, 1,1,1-trifluoropropan-2-yl [(2R,6S,12Z,13aS,14aR,16aS)-5′-methyl-14a-{[(1-methylcyclopropyl)sulfonyl]carbamoyl}-5,16-dioxo-1,1′,2′,5,6,7,8,9,10,11,13a,14,14a,15,16,16a-hexadecahydrospiro[cyclopropa[e]pyrrolo[1,2-a][1,4]diazacyclopentadecine-2,3′-pyrano[2,3-c]quinolin]-6-yl]carbamate]
- IC50 [1]: 0.004 nM
- EC50 (HCV genotype 1b replicon): 9870 pM

SMILES: COc1ccc2nc(C)c3c(c2c1)CC[C@]1(C[C@H]2C(=O)N[C@]4(C(=O)NS(=O)(=O)C5(C)CC5)C[C@H]4/C=C\CCCCC[C@H](NC(=O)OC4CCCC4C)C(=O)N2C1)O3 (stereo partly drawn) [Example 200, 2-methylcyclopentyl [(2R,6S,12Z,13aS,14aR,16aS)-9′-methoxy-5′-methyl-14a-{[(1-methylcyclopropyl)sulfonyl]carbamoyl}-5,16-dioxo-1,1′,2′,5,6,7,8,9,10,11,13a,14,14a,15,16,16a-hexadecahydrospiro[cyclopropa[e]pyrrolo[1,2-a][1,4]diazacyclopentadecine-2,3′-pyrano[2,3-c]quinolin]-6-yl]carbamate]
- IC50 ([1]; K+ salt): 0.005 nM
- EC50 (HCV genotype 1b replicon; Hepatitis C virus, K+ salt): 369 pM

SMILES: Cc1nc2cc(F)c(F)cc2c2c1O[C@]1(CC2)C[C@H]2C(=O)N[C@]3(C(=O)NS(=O)(=O)C4(C)CC4)C[C@H]3/C=C\CCCCC[C@H](NC(=O)OCC(C)C)C(=O)N2C1 [Example 201, 2-methylpropyl [(2R,6S,12Z,13aS,14aR,16aS)-8′,9′-difluoro-5′-methyl-14a-{[(1-methylcyclopropyl)sulfonyl]carbamoyl}-5,16-dioxo-1,1′,2′,5,6,7,8,9,10,11,13a,14,14a,15,16,16a-hexadecahydrospiro[cyclopropa[e]pyrrolo[1,2-a][1,4]diazacyclopentadecine-2,3′-pyrano[2,3-c]quinolin]-6-yl]carbamate]
- IC50 ([1]; K+ salt): 0.007 nM
- EC50 (HCV genotype 1b replicon; Hepatitis C virus, K+ salt): 910 pM

SMILES: Cc1nc2cc(F)c(F)cc2c2c1O[C@]1(CC2)C[C@H]2C(=O)N[C@]3(C(=O)NS(=O)(=O)C4(C)CC4)C[C@H]3/C=C\CCCCC[C@H](NC(=O)OCC(C)(C)C)C(=O)N2C1 [Example 202, 2,2-dimethylpropyl [(2R,6S,12Z,13aS,14aR,16aS)-8′,9′-difluoro-5′-methyl-14a-{[(1-methylcyclopropyl)sulfonyl]carbamoyl}-5,16-dioxo-1,1′,2′,5,6,7,8,9,10,11,13a,14,14a,15,16,16a-hexadecahydrospiro[cyclopropa[e]pyrrolo[1,2-a][1,4]diazacyclopentadecine-2,3′-pyrano[2,3-c]quinolin]-6-yl]carbamate]
- IC50 ([1]; K+ salt): 0.009 nM
- EC50 (HCV genotype 1b replicon; Hepatitis C virus, K+ salt): 1430 pM

SMILES: COc1ccc2nc(C)c3c(c2c1)CC[C@]1(C[C@H]2C(=O)N[C@]4(C(=O)NS(=O)(=O)C5(C)CC5)C[C@H]4/C=C\CCCCC[C@H](NC(=O)OCC(C)(C)C)C(=O)N2C1)O3 [Example 205, 2,2-dimethylpropyl [(2R,6S,12Z,13aS,14aR,16aS)-9′-methoxy-5′-methyl-14a-{[(1-methylcyclopropyl)sulfonyl]carbamoyl}-5,16-dioxo-1,1′,2′,5,6,7,8,9,10,11,13a,14,14a,15,16,16a-hexadecahydrospiro[cyclopropa[e]pyrrolo[1,2-a][1,4]diazacyclopentadecine-2,3′-pyrano[2,3-c]quinolin]-6-yl]carbamate]
- IC50 ([1]; K+ salt): 0.005 nM
- EC50 (HCV genotype 1b replicon; Hepatitis C virus, K+ salt): 647 pM

SMILES: COc1ccc2nc(C)c3c(c2c1)CC[C@]1(C[C@H]2C(=O)N[C@]4(C(=O)NS(=O)(=O)C5(C)CC5)C[C@H]4/C=C\CCCCC[C@H](NC(=O)OC4CCCCC4)C(=O)N2C1)O3 [Example 206, cyclohexyl [(2R,6S,12Z,13aS,14aR,16aS)-9′-methoxy-5′-methyl-14a-{[(1-methylcyclopropyl)sulfonyl]carbamoyl}-5,16-dioxo-1,1′,2′,5,6,7,8,9,10,11,13a,14,14a,15,16,16a-hexadecahydrospiro[cyclopropa[e]pyrrolo[1,2-a][1,4]diazacyclopentadecine-2,3′-pyrano[2,3-c]quinolin]-6-yl]carbamate]
- IC50 ([1]; K+ salt): 0.005 nM
- EC50 (HCV genotype 1b replicon; Hepatitis C virus, K+ salt): 808 pM

SMILES: COCC(C)(C)OC(=O)N[C@H]1CCCCC/C=C\[C@@H]2C[C@@]2(C(=O)NS(=O)(=O)C2(C)CC2)NC(=O)[C@@H]2C[C@]3(CCc4c(c(C)nc5ccc(OC(F)(F)F)cc45)O3)CN2C1=O [Example 207, 1-methoxy-2-methylpropan-2-yl [(2R,6S,12Z,13aS,14aR,16aS)-5′-methyl-14a-{[(1-methylcyclopropyl)sulfonyl]carbamoyl}-5,16-dioxo-9′-(trifluoromethoxy)-1,1′,2′,5,6,7,8,9,10,11,13a,14,14a,15,16,16a-hexadecahydrospiro[cyclopropa[e]pyrrolo[1,2-a][1,4]diazacyclopentadecine-2,3′-pyrano[2,3-c]quinolin]-6-yl]carbamate]
- IC50 [1]: 0.007 nM
- EC50 (HCV genotype 1b replicon; Hepatitis C virus): 1080 pM

SMILES: COCCC(C)(C)OC(=O)N[C@H]1CCCCC/C=C\[C@@H]2C[C@@]2(C(=O)NS(=O)(=O)C2(C)CC2)NC(=O)[C@@H]2C[C@]3(CCc4c(c(C)nc5ccc(OC(F)(F)F)cc45)O3)CN2C1=O [Example 208, 4-methoxy-2-methylbutan-2-yl [(2R,6S,12Z,13aS,14aR,16aS)-5′-methyl-14a-{[(1-methylcyclopropyl)sulfonyl]carbamoyl}-5,16-dioxo-9′-(trifluoromethoxy)-1,1′,2′,5,6,7,8,9,10,11,13a,14,14a,15,16,16a-hexadecahydrospiro[cyclopropa[e]pyrrolo[1,2-a][1,4]diazacyclopentadecine-2,3′-pyrano[2,3-c]quinolin]-6-yl]carbamate]
- IC50 [1]: 0.009 nM
- EC50 (HCV genotype 1b replicon; Hepatitis C virus): 2050 pM

SMILES: COc1ccc2nc(C(C)C)c3c(c2c1)C(F)(F)C[C@]1(C[C@H]2C(=O)N[C@]4(C(=O)NS(=O)(=O)C5(C)CC5)C[C@H]4/C=C\CCCCC[C@H](NC(=O)OC4CCCC4)C(=O)N2C1)O3 [Example 210, cyclopentyl [(2S,6S,12Z,13aS,14aR,16aS)-1′,1′-difluoro-9′-methoxy-14a-{[(1-methylcyclopropyl)sulfonyl]carbamoyl}-5,16-dioxo-5′-(propan-2-yl)-1,1′,2′,5,6,7,8,9,10,11,13a,14,14a,15,16,16a-hexadecahydrospiro[cyclopropa[e]pyrrolo[1,2-a][1,4]diazacyclopentadecine-2,3′-pyrano[2,3-c]quinolin]-6-yl]carbamate]
- IC50 [1]: 0.008 nM
- EC50 (HCV genotype 1b replicon; Hepatitis C virus): 2380 pM

SMILES: COc1ccc2nc(C(C)C)c3c(c2c1)C(F)(F)C[C@]1(C[C@H]2C(=O)N[C@]4(C(=O)NS(=O)(=O)C5(C)CC5)C[C@H]4/C=C\CCCCC[C@H](NC(=O)OCC(C)C)C(=O)N2C1)O3 [Example 211, 2-methylpropyl [(2S,6S,12Z,13aS,14aR,16aS)-1′,1′-difluoro-9′-methoxy-14a-{[(1-methylcyclopropyl)sulfonyl]carbamoyl}-5,16-dioxo-5′-(propan-2-yl)-1,1′,2′,5,6,7,8,9,10,11,13a,14,14a,15,16,16a-hexadecahydrospiro[cyclopropa[e]pyrrolo[1,2-a][1,4]diazacyclopentadecine-2,3′-pyrano[2,3-c]quinolin]-6-yl]carbamate]
- IC50 [1]: 0.006 nM
- EC50 (HCV genotype 1b replicon; Hepatitis C virus): 3540 pM

SMILES: COc1ccc2nc(C(F)(F)F)c3c(c2c1)CC[C@]1(C[C@H]2C(=O)N[C@]4(C(=O)NS(=O)(=O)C5(C)CC5)C[C@H]4/C=C\CCCCC[C@H](NC(=O)OC4(C)CC4)C(=O)N2C1)O3 [Example 216, 1-methylcyclopropyl [(2R,6S,12Z,13aS,14aR,16aS)-9′-methoxy-14a-{[(1-methylcyclopropyl)sulfonyl]carbamoyl}-5,16-dioxo-5′-(trifluoromethyl)-1,1′,2′,5,6,7,8,9,10,11,13a,14,14a,15,16,16a-hexadecahydrospiro[cyclopropa[e]pyrrolo[1,2-a][1,4]diazacyclopentadecine-2,3′-pyrano[2,3-c]quinolin]-6-yl]carbamate]
- IC50 [1]: 0.013 nM
- EC50 (HCV genotype 1b replicon; Hepatitis C virus): 6430 pM

SMILES: COc1ccc2nc(C(F)(F)F)c3c(c2c1)CC[C@]1(C[C@H]2C(=O)N[C@]4(C(=O)NS(=O)(=O)C5(C)CC5)C[C@H]4/C=C\CCCCC[C@H](NC(=O)OC4CCCC4)C(=O)N2C1)O3 [Example 217, cyclopentyl [(2R,6S,12Z,13aS,14aR,16aS)-9′-methoxy-14a-{[(1-methylcyclopropyl)sulfonyl]carbamoyl}-5,16-dioxo-5′-(trifluoromethyl)-1,1′,2′,5,6,7,8,9,10,11,13a,14,14a,15,16,16a-hexadecahydrospiro[cyclopropa[e]pyrrolo[1,2-a][1,4]diazacyclopentadecine-2,3′-pyrano[2,3-c]quinolin]-6-yl]carbamate]
- IC50 [1]: 0.024 nM
- EC50 (HCV genotype 1b replicon; Hepatitis C virus): 10400 pM
